Here are results for six compounds from ChEMBL document CHEMBL3868637, “Treatment of HIV Infections with HIV Integrase Inhibitors” (ACS Med Chem Lett, 2017).

A short description of series [1]: Cytotoxicity against human MT4 cells assessed as reduction in cell viability measured after 5 days by CellTiter-Glo assay. Type of series: toxicity, cell-based. (ATP-based viability assays read luminescence as a measure of living cells.)
The nature of series [2]: Inhibition of HIV 3B integrase infected in human MT4 cells assessed as reduction in viral replication after 5 days by CellTiter-Glo assay. Type of series: cell-based. Particulars: Human immunodeficiency virus 1, 3B, MT4, 120 h.

Take `O=C(NCc1c(F)cc(F)cc1F)c1cn2c(c(O)c1=O)C(=O)N1CCCC[C@]13COCC[C@H]23`: the CC50 (commonly the concentration that lowers cell viability or growth by half) at 120 h in series [1] was determined as 33600 nM. For the same compound, in series [2], the EC50 (commonly the concentration at which the effect is half-maximal) worked out at 1.94 nM.
On the same counts, the results for `O=C(NCc1ccc(F)c(Cl)c1F)c1cn2c(c(O)c1=O)C(=O)N1CCS[C@]13COCC[C@H]23` are 10800 nM and 1.2 nM.
In the case of `COc1c2n(cc(C(=O)NCc3ccc(F)c(Cl)c3F)c1=O)[C@H]1CCC[C@]13OCCN3C2=O`, the CC50 at 120 h in series [1] was 4940 nM. For the same compound, in series [2], the EC50 turned out to be 2.53 nM.
On the same counts, the results for `C[C@H]1CCO[C@]23CCC[C@H]2n2cc(C(=O)NCc4ccc(F)c(Cl)c4F)c(=O)c(O)c2C(=O)N13` are 17500 nM and 11.8 nM.
Take `O=C(NCc1ccc(F)c(Cl)c1F)c1cn2c(c(O)c1=O)C(=O)N1CC=CC[C@]13CCOC[C@H]23`: the CC50 at 120 h in series [1] was found to be 8020 nM. Further, in series [2], the EC50 was determined as 4.62 nM.
As for `C[C@@H]1CO[C@@]23CCOC[C@@H]2n2cc(C(=O)NCc4ccc(F)c(Cl)c4F)c(=O)c(O)c2C(=O)N13`, in series [1], the half-maximal cytotoxic concentration (CC50) at 120 h stood at 7530 nM. Besides, the EC50 in series [2] turned out to be 1.82 nM.
